Like-named read-outs stand apart in the source and are kept apart here.
Tested on: M. furfur
From the text: The time-kill assays are used to evaluate efficacy of antimicrobial agents, either singly or in combination, and the results can help in establishing the dose and/or time of application of the active. The time-kill assays can be used to study both concentration-dependent and time-dependent antimicrobial action.
Method: M. furfur cells were suspended in Sabouraud Dextrose Broth (SDB) at inoculum concentration of 7×10^7 cells/ml. Cells were taken from a freshly growing (3-7 days old) plate and cell suspension is vortexed to remove the cell clumps as much as possible. Sterile media were supplemented with chloramphenicol (0.25 mg/ml), cycloheximide (0.04 mg/ml) and olive oil (2%). The media were then supplemented with appropriate concentrations (two-fold serial dilutions using SDB) of zinc pyrithione powder (10 μg/ml and 50 μg/ml) with different concentrations of Capmul 908-P […]. The cultures were incubated on a tube rotator at 34° C. in CO2 incubator.
To measure the colony forming units (CFU), at different time points, aliquots (50 μl) of Malassezia cultures were serially diluted with SDBT medium (SDB containing 0.1% Triton X-100) and plated on SDA plates. The plates were incubated at 34° C. in CO2 incubator for 3 days. The viable colonies were counted and converted to CFU/ml.

## zinc pyrithione [ZPT]
ZPT 10 μg/ml, Capmul 908-P 30 μg/ml, 6 hrs
  Log CFU Count of M. furfur: 6.50 Log CFU
ZPT 10 μg/ml, Capmul 908-P 30 μg/ml, 24 hrs
  Log CFU Count of M. furfur: 5.94 Log CFU
ZPT 10 μg/ml, Capmul 908-P 30 μg/ml, 48 hrs
  Log CFU Count of M. furfur: 5.06 Log CFU
ZPT 10 μg/ml, Capmul 908-P 50 μg/ml, 6 hrs
  Log CFU Count of M. furfur: 6.37 Log CFU
ZPT 10 μg/ml, Capmul 908-P 50 μg/ml, 24 hrs
  Log CFU Count of M. furfur: 5.57 Log CFU
ZPT 10 μg/ml, Capmul 908-P 50 μg/ml, 48 hrs
  Log CFU Count of M. furfur: 4.80 Log CFU
ZPT 10 μg/ml, Capmul 908-P 90 μg/ml, 6 hrs
  Log CFU Count of M. furfur: 6.33 Log CFU
ZPT 10 μg/ml, Capmul 908-P 90 μg/ml, 24 hrs
  Log CFU Count of M. furfur: 5.55 Log CFU
ZPT 10 μg/ml, Capmul 908-P 90 μg/ml, 48 hrs
  Log CFU Count of M. furfur: 4.77 Log CFU
ZPT 10 μg/ml, Capmul 908-P nil, 6 hrs
  Log CFU Count of M. furfur: 6.56 Log CFU
ZPT 10 μg/ml, Capmul 908-P nil, 24 hrs
  Log CFU Count of M. furfur: 6.13 Log CFU
ZPT 10 μg/ml, Capmul 908-P nil, 48 hrs
  Log CFU Count of M. furfur: 5.27 Log CFU
ZPT 50 μg/ml, Capmul 908-P 30 μg/ml, 6 h
  Log CFU Count of M. furfur: 6.06 Log CFU
ZPT 50 μg/ml, Capmul 908-P 30 μg/ml, 24 h
  Log CFU Count of M. furfur: 4.69 Log CFU
ZPT 50 μg/ml, Capmul 908-P 30 μg/ml, 48 h
  Log CFU Count of M. furfur: 3.25 Log CFU
ZPT 50 μg/ml, Capmul 908-P 50 μg/ml, 6 h
  Log CFU Count of M. furfur: 5.94 Log CFU
ZPT 50 μg/ml, Capmul 908-P 50 μg/ml, 24 h
  Log CFU Count of M. furfur: 4.62 Log CFU
ZPT 50 μg/ml, Capmul 908-P 50 μg/ml, 48 h
  Log CFU Count of M. furfur: 3.04 Log CFU
ZPT 50 μg/ml, Capmul 908-P 90 μg/ml, 6 h
  Log CFU Count of M. furfur: 5.52 Log CFU
ZPT 50 μg/ml, Capmul 908-P 90 μg/ml, 24 h
  Log CFU Count of M. furfur: 3.63 Log CFU
ZPT 50 μg/ml, Capmul 908-P 90 μg/ml, 48 h
  Log CFU Count of M. furfur: 2.08 Log CFU
ZPT 50 μg/ml, Capmul 908-P nil, 6 h
  Log CFU Count of M. furfur: 6.43 Log CFU
ZPT 50 μg/ml, Capmul 908-P nil, 24 h
  Log CFU Count of M. furfur: 5.39 Log CFU
ZPT 50 μg/ml, Capmul 908-P nil, 48 h
  Log CFU Count of M. furfur: 3.92 Log CFU
time-kill, ZPT 10 and 50 μg/ml with Capmul 908-P
  anti-microbial activity towards M. furfur in combination with propylene glycol monocaprylate: potentiated with increasing concentration of propylene glycol monocaprylate

Source: patent US20160128944A1, “COATED PARTICLES AND COMPOSITIONS COMPRISING SAME” (VYOME BIOSCIENCES PVT. LTD., priority 2013, published 2016)
